In patent publication US20250270213A1, “PI3Ka INHIBITORS” (Synnovation Therapeutics, Inc., priority 2022, published 2025):
pIC50: −log10 of the molar value.

Tested on: T47D (PIK3CA H1047R) cells
Experiment: pS473 AKT assay with 2.5% FBS, T47D cells
Type: cell-based
Conditions: Homo sapiens, pSer473 AKT, DMEM with 2.5% FBS, 2 h treatment, read-out: T47D_IC50
Description: Example B. pS473 AKT Assay Protocol with 2.5% FBS
T47D (PIK3CA H1047R) cells were cultured using 10-cm petri dishes with recommended medium plus 10% fetal bovine serum. One day before the assay, cells were seeded in 96-well plates. After overnight incubation, the medium was changed to DMEM with 2.5% fetal bovine serum (FBS) and the cells were treated with different concentrations of the compounds for 2 h. Cells were then fixed using 4% paraformaldehyde at room temperature for 20 min. Aspirate 4% paraformaldehyde, and wash cells using 1× regular phosphate buffered saline 3 times, 5 min each. Aspirate any residual phosphate buffered saline and block cells using 10% goat serum containing 1% bovine serum albumin and 0.3% Triton X-100 at room temperature for 1 h. Without any additional washing, primary antibodies (rabbit anti-pSer473 AKT) were diluted using blocking buffer and added at a final volume of 50 microliter per well. Keep assay plates with primary antibodies overnight at 4° C. Wash cells using 1× regular phosphate buffered saline 3 times, 5 min each. After the final wash, incubate cells with horseradish peroxidase-conjugated secondary antibodies (goat Anti-rabbit IgG) diluted using the same blocking buffer at room temperature for 1 h. Wash cells thoroughly using 1× regular phosphate buffered saline 3 times, 5 min each. Aspirate any residual phosphate buffered saline. Add Super-Signal ELISA Pico Chemiluminescent Substrate at a final volume of 100 microliter per well. Read plates on i3x Multi-Mode Microplate Reader and calculate IC50 values using GraphPad Prism software.

pIC50 | SMILES
> 6.00 | CCn1ncc2c3c(C(C)Nc4ccc(Cl)nc4C(=O)NC4CCN(C)CC4)cc(C)cc3c(=O)n(C)c21 (stereo not shown) [Compound 73, 6-Chloro-3-((1-(3-ethyl-4,7-dimethyl-5-oxo-4,5-dihydro-3H-pyrazolo[3,4-c]isoquinolin-9-yl)ethyl)amino)-N-(1-methylpiperidin-4-yl)picolinamide]
> 6.00 | CCn1ncc2c3c(C(C)Nc4ccc(Cl)nc4C(=O)Nc4ccncc4)cc(C)cc3c(=O)n(C)c21 (stereo not shown) [Compound 74, 6-chloro-3-((1-(3-ethyl-4,7-dimethyl-5-oxo-4,5-dihydro-3H-pyrazolo[3,4-c]isoquinolin-9-yl)ethyl)amino)-N-(pyridin-4-yl)picolinamide]
> 6.00 | CCn1ncc2c3c(C(C)Nc4ccc(Cl)nc4C(=O)NOC)cc(C)cc3c(=O)n(C)c21 (stereo not shown) [Compound 75, 6-chloro-3-((1-(3-ethyl-4,7-dimethyl-5-oxo-4,5-dihydro-3H-pyrazolo[3,4-c]isoquinolin-9-yl)ethyl)amino)-N-methoxypicolinamide]
> 6.00 | CCn1ncc2c3c(C(CO)Nc4ccc(Cl)nc4-c4ccncc4F)cc(C)cc3c(=O)n(C)c21 (stereo not shown) [Compound 76, 9-(1-((6-Chloro-3′-fluoro-[2,4′-bipyridin]-3-yl)amino)-2-hydroxyethyl)-3-ethyl-4,7-dimethyl-3,4-dihydro-5H-pyrazolo[3,4-c]isoquinolin-5-one]
> 6.00 | CCn1ncc2c3c(C(CO)Nc4ccc(Cl)nc4-c4cnn(C)c4)cc(C)cc3c(=O)n(C)c21 (stereo not shown) [Compound 77, 9-(1-((6-Chloro-2-(1-methyl-1H-pyrazol-4-yl)pyridin-3-yl)amino)-2-hydroxyethyl)-3-ethyl-4,7-dimethyl-3,4-dihydro-5H-pyrazolo[3,4-c]isoquinolin-5-one]
> 6.00 | CCn1ncc2c3c(C(CO)Nc4ccc(Cl)nc4-c4cnn(C)c4C)cc(C)cc3c(=O)n(C)c21 (stereo not shown) [Compound 78, 9-(1-((6-Chloro-2-(1,5-dimethyl-1H-pyrazol-4-yl)pyridin-3-yl)amino)-2-hydroxyethyl)-3-ethyl-4,7-dimethyl-3,4-dihydro-5H-pyrazolo[3,4-c]isoquinolin-5-one]
> 6.00 | CCn1ncc2c3c(C(C)Nc4ccc(Cl)nc4-c4cnn(C5CCN(C)CC5)c4)cc(C)cc3c(=O)n(C)c21 (stereo not shown) [Compound 79, 9-(1-((6-Chloro-2-(1-(1-methylpiperidin-4-yl)-1H-pyrazol-4-yl)pyridin-3-yl)amino)ethyl)-3-ethyl-4,7-dimethyl-3,4-dihydro-5H-pyrazolo[3,4-c]isoquinolin-5-one]
> 6.00 | CCn1ncc2c3c(C(C)Nc4ccc(Cl)nc4N4CCN(C(C)=O)CC4)cc(C)cc3c(=O)n(C)c21 (stereo not shown) [Compound 80, 9-(1-((2-(4-Acetylpiperazin-1-yl)-6-chloropyridin-3-yl)amino)ethyl)-3-ethyl-4,7-dimethyl-3,4-dihydro-5H-pyrazolo[3,4-c]isoquinolin-5-one]
> 6.00 | Cc1cc(C(C)Nc2ccc(Cl)nc2-c2cnn(C)c2)c2c(c1)c(=O)n(C)c1c2cnn1C1CN(C)C1 (stereo not shown) [Compound 81, 9-(1-((6-Chloro-2-(1-methyl1H-pyrazol-4-yl)pyridin-3-yl)amino)ethyl)-4,7-dimethyl-3-(1-methylazetidin-3-yl)-3,4-dihydro-5H-pyrazolo[3,4-c]isoquinolin-5-one]
> 6.00 | Cc1cc(C(C)Nc2ccc(Cl)nc2-c2ncn(C)n2)c2c(c1)c(=O)n(C)c1c2cnn1C1CN(C)C1 (stereo not shown) [Compound 82, 9-(1-((6-chloro-2-(1-methyl-1H-1,2,4-triazol-3-yl)pyridin-3-yl)amino)ethyl)-4,7-dimethyl-3-(1-methylazetidin-3-yl)-3,4-dihydro-5H-pyrazolo[3,4-c]isoquinolin-5-one]
> 6.00 | Cc1cc(C(C)Nc2ccc(Cl)nc2-c2ncn(CCO)n2)c2c(c1)c(=O)n(C)c1c2cnn1C1CN(C)C1 (stereo not shown) [Compound 83, 9-(1-((6-chloro-2-(1-(2-hydroxyethyl)-1H-1,2,4-triazol-3-yl)pyridin-3-yl)amino)ethyl)-4,7-dimethyl-3-(1-methylazetidin-3-yl)-3,4-dihydro-5H-pyrazolo[3,4-c]isoquinolin-5-one]
> 6.00 | Cc1cc(C(C)Nc2ccc(Cl)nc2-c2cn[nH]c2)c2c(c1)c(=O)n(C)c1c2cnn1C1CN(C)C1 (stereo not shown) [Compound 84, 9-(1-((6-chloro-2-(1H-pyrazol-4-yl)pyridin-3-yl)amino)ethyl)-4,7-dimethyl-3-(1-methylazetidin-3-yl)-3,4-dihydro-5H-pyrazolo[3,4-c]isoquinolin-5-one]
> 6.00 | Cc1cc(C(C)Nc2ccc(Cl)nc2-c2ccc(=O)n(C)c2)c2c(c1)c(=O)n(C)c1c2cnn1C1CN(C)C1 (stereo not shown) [Compound 85, 9-(1-((6-chloro-1′-methyl-6′-oxo-1′,6′-dihydro-[2,3′-bipyridin]-3-yl)amino)ethyl)-4,7-dimethyl-3-(1-methylazetidin-3-yl)-3,4-dihydro-5H-pyrazolo[3,4-c]isoquinolin-5-one]

The next lines start with the compound.

SMILES | pIC50
Cc1cc(C(C)Nc2ccc(Cl)nc2-c2noc(=O)[nH]2)c2c(c1)c(=O)n(C)c1c2cnn1C1CCCC1 (stereo not shown) [Compound 61, 3-(6-Chloro-3-((1-(3-cyclopentyl-4,7-dimethyl-5-oxo-4,5-dihydro-3H-pyrazolo[3,4-c]isoquinolin-9-yl)ethyl)amino)pyridin-2-yl)-1,2,4-oxadiazol-5(4H)-one] | > 6.00
Cc1cc(C(C)Nc2ccc(Cl)nc2-c2noc(=O)[nH]2)c2c(c1)c(=O)n(C)c1c2cnn1C(C)C (stereo not shown) [Compound 62, 3-(6-Chloro-3-((1-(3-isopropyl-4,7-dimethyl-5-oxo-4,5-dihydro-3H-pyrazolo[3,4-c]isoquinolin-9-yl)ethyl)amino)pyridin-2-yl)-1,2,4-oxadiazol-5(4H)-one] | > 6.00
CCn1ncc2c3c(C(C)Nc4ccc(Cl)nc4-c4noc(=O)[nH]4)cc(Cl)cc3c(=O)n(C)c21 (stereo not shown) [Compound 63, 3-(6-Chloro-3-((1-(7-chloro-3-ethyl-4-methyl-5-oxo-4,5-dihydro-3H-pyrazolo[3,4-c]isoquinolin-9-yl)ethyl)amino)pyridin-2-yl)-1,2,4-oxadiazol-5(4H)-one] | > 6.00
CC(Nc1ccc(Cl)nc1-c1noc(=O)[nH]1)c1cc(Cl)cc2c(=O)n(C)c3c(cnn3CC3CC3)c12 (stereo not shown) [Compound 64, 3-(6-Chloro-3-((1-(7-chloro-3-(cyclopropylmethyl)-4-methyl-5-oxo-4,5-dihydro-3H-pyrazolo[3,4-c]isoquinolin-9-yl)ethyl)amino)pyridin-2-yl)-1,2,4-oxadiazol-5(4H)-one] | > 6.00
CCCn1ncc2c3c(C(C)Nc4ccc(Cl)nc4-c4noc(=O)[nH]4)cc(C)cc3c(=O)n(C)c21 (stereo not shown) [Compound 65, 3-(6-Chloro-3-((1-(4,7-dimethyl-5-oxo-3-propyl-4,5-dihydro-3H-pyrazolo[3,4-c]isoquinolin-9-yl)ethyl)amino)pyridin-2-yl)-1,2,4-oxadiazol-5(4H)-one] | > 6.00
Cc1cc(C(C)Nc2ccc(Cl)nc2-c2noc(=O)[nH]2)c2c(c1)c(=O)n(C)c1c2cnn1C1CCOC1 (stereo not shown) [Compound 66, 3-(6-Chloro-3-((1-(4,7-dimethyl-5-oxo-3-(tetrahydrofuran-3-yl)-4,5-dihydro-3H-pyrazolo[3,4-c]isoquinolin-9-yl)ethyl)amino)pyridin-2-yl)-1,2,4-oxadiazol-5(4H)-one] | > 6.00
COCCn1ncc2c3c(C(C)Nc4ccc(Cl)nc4-c4noc(=O)[nH]4)cc(C)cc3c(=O)n(C)c21 (stereo not shown) [Compound 67, 3-(6-Chloro-3-((1-(3-(2-methoxyethyl)-4,7-dimethyl-5-oxo-4,5-dihydro-3H-pyrazolo[3,4-c]isoquinolin-9-yl)ethyl)amino)pyridin-2-yl)-1,2,4-oxadiazol-5(4H)-one] | > 6.00
Cc1cc(C(C)Nc2ccc(Cl)nc2-c2noc(=O)[nH]2)c2c(c1)c(=O)n(C)c1c2cnn1CC1CC1 (stereo not shown) [Compound 68, 3-(6-Chloro-3-((1-(3-(cyclopropylmethyl)-4,7-dimethyl-5-oxo-4,5-dihydro-3H-pyrazolo[3,4-c]isoquinolin-9-yl)ethyl)amino)pyridin-2-yl)-1,2,4-oxadiazol-5(4H)-one] | > 6.00
CCn1ncc2c3c(C(C)Nc4ccc(Cl)nc4-c4noc(=O)[nH]4)cc(C(F)(F)F)cc3c(=O)n(C)c21 (stereo not shown) [Compound 69, 3-(6-Chloro-3-((1-(3-ethyl-4-methyl-5-oxo-7-(trifluoromethyl)-4,5-dihydro-3H-pyrazolo[3,4-c]isoquinolin-9-yl)ethyl)amino)pyridin-2-yl)-1,2,4-oxadiazol-5(4H)-one] | > 6.00
Cc1cc(C(C)Nc2ccc(Cl)nc2-c2noc(=O)[nH]2)c2c(c1)c(=O)n1c3c2cnn3C(C)CC1 (stereo not shown) [Compound 70, 3-(6-Chloro-3-((1-(3,8-dimethyl-6-oxo-4,5-dihydro-3H,6H-2,2a,5a-triazaaceanthrylen-10-yl)ethyl)amino)pyridin-2-yl)-1,2,4-oxadiazol-5(4H)-one] | > 6.00
CCc1ncn2c3c(C(C)Nc4ccc(Cl)nc4-c4noc(=O)[nH]4)cc(C)cc3c(=O)n(C)c12 (stereo not shown) [Compound 71, 3-(6-Chloro-3-((1-(3-ethyl-4,7-dimethyl-5-oxo-4,5-dihydroimidazo[1,5-a]quinazolin-9-yl)ethyl)amino)pyridin-2-yl)-1,2,4-oxadiazol-5(4H)-one] | > 6.00
CCn1ncc2c3c(C(C)Nc4cccnc4-c4nnn[nH]4)cc(C)cc3c(=O)n(C)c21 (stereo not shown) [Compound 72, 9-(1-((2-(1H-Tetrazol-5-yl)pyridin-3-yl)amino)ethyl)-3-ethyl-4,7-dimethyl-3,4-dihydro-5H-pyrazolo[3,4-c]isoquinolin-5-one] | > 6.00
